Calls of active or inactive are those of the source. The calls are words filed in the database; no cut-off is given here.
Key:
[1] = Cytotoxicity against normal human epidermal keratinocytes at 100 uM after 72 hrs by MTT assay; assay type: cell-based; conditions: keratinocyte
[2] = Cytotoxicity against normal human epidermal keratinocytes at 10 uM after 72 hrs by MTT assay; assay type: cell-based; conditions: keratinocyte
[3] = molecular target: Proteinase-activated receptor 2 (Homo sapiens) (UniProt P55085); experiment: Inhibition of PAR2-mediated SLIGKV-NH2-induced interleukin-8 production in normal human epidermal keratinocytes at 5 uM after 24 hrs by ELISA
Proteinase-activated receptor 2 (Homo sapiens), sequence (P55085 whole entry): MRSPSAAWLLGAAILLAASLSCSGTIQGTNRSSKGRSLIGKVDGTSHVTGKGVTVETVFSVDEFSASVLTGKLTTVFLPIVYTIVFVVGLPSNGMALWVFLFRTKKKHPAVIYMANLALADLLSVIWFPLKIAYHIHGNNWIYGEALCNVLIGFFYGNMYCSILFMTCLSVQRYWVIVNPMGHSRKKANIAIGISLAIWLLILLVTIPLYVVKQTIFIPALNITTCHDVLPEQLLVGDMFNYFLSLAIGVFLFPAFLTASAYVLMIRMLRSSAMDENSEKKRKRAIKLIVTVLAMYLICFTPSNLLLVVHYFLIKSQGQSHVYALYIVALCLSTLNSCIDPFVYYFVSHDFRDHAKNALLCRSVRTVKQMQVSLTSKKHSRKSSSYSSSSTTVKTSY

[4] = molecular target: Proteinase-activated receptor 2 (Homo sapiens) (UniProt P55085); experiment: Inhibition of PAR2-mediated SLIGKV-NH2-induced interleukin-8 production in normal human epidermal keratinocytes at 10 uM after 24 hrs by ELISA
[5] = molecular target: Proteinase-activated receptor 2 (Homo sapiens) (UniProt P55085); experiment: Inhibition of PAR2 gene expression in normal human epidermal keratinocytes at 10 uM after 48 hrs by quantitative RT-PCR
[6] = molecular target: Proteinase-activated receptor 2 (Homo sapiens) (UniProt P55085); experiment: Inhibition of PAR2-mediated IL1-beta and SLIGKV-NH2-induced interleukin-8 production in normal human epidermal keratinocytes at 10 uM by ELISA
[7] = molecular target: Proteinase-activated receptor 2 (Homo sapiens) (UniProt P55085); experiment: Inhibition of PAR2-mediated TNFalpha and SLIGKV-NH2-induced interleukin-8 production in normal human epidermal keratinocytes at 10 uM by ELISA
[8] = Cytotoxicity against normal human epidermal keratinocytes at 5 uM after 72 hrs by MTT assay; assay type: cell-based; conditions: keratinocyte

SMILES	Activity [1]	Activity [2]	Activity [3]	Activity [4]	Activity [5]	Activity [6]	Activity [7]	Activity [8]
CN(C)[C@@H]1C(O)=C(C(N)=O)C(=O)[C@@]2(O)C(O)=C3C(=O)c4c(O)cccc4[C@@](C)(O)[C@H]3C[C@@H]12 [TETRACYCLINE]	Toxic	Non-toxic	Active	Active	inactive	inactive	Active	Non-toxic
C[C@H]1c2cccc(O)c2C(=O)C2=C(O)[C@]3(O)C(=O)C(C(N)=O)=C(O)[C@@H](N(C)C)[C@@H]3[C@@H](O)[C@@H]21.O [DOXYCYCLINE]	Toxic	Non-toxic	Active	Active	inactive	Active	Active	Non-toxic
CC[C@H]1OC(=O)[C@H](C)[C@@H](O[C@H]2C[C@@](C)(OC)[C@@H](O)[C@H](C)O2)[C@H](C)[C@@H](O[C@@H]2O[C@H](C)C[C@H](N(C)C)[C@H]2O)[C@](C)(OC)C[C@@H](C)C(=O)[C@H](C)[C@@H](O)[C@]1(C)O	–	–	–	–	–	–	inactive	–
CN(C)c1ccc(O)c2c1C[C@H]1C[C@H]3[C@H](N(C)C)C(O)=C(C(N)=O)C(=O)[C@@]3(O)C(O)=C1C2=O [MINOCYCLINE]	Toxic	Non-toxic	Active	Active	inactive	Active	Active	Non-toxic
CC[C@H]1OC(=O)[C@H](C)[C@@H](O[C@H]2C[C@@](C)(OC)[C@@H](O)[C@H](C)O2)[C@H](C)[C@@H](O[C@@H]2O[C@H](C)C[C@H](N(C)C)[C@H]2O)[C@](C)(O)C[C@@H](C)/C(=N\OCOCCOC)[C@H](C)[C@@H](O)[C@]1(C)O	–	–	–	–	–	–	inactive	–

Reference: ChEMBL document CHEMBL1649195, “Tetracyclines modulate protease-activated receptor 2-mediated proinflammatory reactions in epidermal keratinocytes” (Antimicrob Agents Chemother, 2009)
